# Source: patent US7553928B2, “Use of des-Aspartate-angiotensin I as an agent for the treatment and prevention of glomerulosclerosis and renal failure” (priority 2000, dated 2009)
# How the values were obtained:
# normal rats = assay: Urine protein excretion in normal rats; assay type: in vivo, Sprague Dawley rats
# Excerpt: Data were expressed as mean±SEM. […] The accepted level of significance was p<0.05.
# ⅚ nephrectomized rats = assay: Urine protein excretion in five-sixths nephrectomized (ablation proteinuric) rats; assay type: in vivo, Sprague Dawley rats; details: for 24-hour urinary excretion of protein, Weeks 9-16: 762 nmoles/kg/day orally for 8 weeks (weeks 9-16 post nephrectomy); for 24-hour urinary excretion of protein, Weeks 9-16 / 24-hour urinary excretion of protein, Weeks 1-8: mean ± SEM; for 24-hour urinary excretion of protein, Weeks 1-8: treatment group in weeks 1-8 post nephrectomy, before treatment started (baseline)
# Experimental: nephrectomy was carried out as described by Morrison (11). Briefly, each animal was anaesthetized with 7% w/v chloral hydrate (0.4 g/kg, i.p.). An incision was made in the ventral abdominal wall to access the kidneys. Right nephrectomy was performed and the cranial and caudal third of the left kidney were cut off. Tissue adhesive (Histoccryl, B. Braun) was used to seal the cut ends of the left kidney and prevent bleeding. In this way 5⁄6 of the renal parenchyma was removed. This model results in focal and segmental glomerulosclerosis, resembling renal lesions in humans like oligomeganephronia, membranous nephropathy, minimal change nephritis, proliferative glomerulonephritis, analgesic nephropathy, diabetes mellitus, unilateral nephrectomy, cortical necrosis, and unilateral renal agenesis (9). Following the operation, each animal was placed in a metabolic cage for 24 hours once a week for a duration of 8 weeks. The 24-hour urine output and the concentration of protein in the urine were measured. After the 8th week, the animals were randomly divided into two groups (8 animals per group). Animals in one of the group (the treatment group) were orally administered 762 nmoles/kg/day of des-Asp-angiotensin I dissolved in 0.5 ml of saline via a 1-ml syringe with a blunted needle for a period of 8 weeks. The dose of 762 nmoles/kg/day was calculated based on the maximum effective oral anti-cardiac hypertrophic dose (250 nmole per rat of average weight of 328 g) in the original parent patent. Animals in the other group (the control group) were similarly administered with 0.5 ml of saline. Weekly measurement of 24-hour urine output and the concentration of protein in the urine in these animals were carried out for another 8 weeks. The protocol was designed based on our preliminary observation that urinary excretion of protein in the 5⁄6 nephrectomized rats commenced to increase above the normal value in 7th to 8th week post nephrectomy. A repeat of the experiment with 12 nephrectomized rats per group was carried out. Data were expressed as mean±SEM. […] The accepted level of significance was p<0.05.
substance,measurement,setting,value
des-Aspartate angiotensin I [des-Asp-angiotensin I],"24-hour urinary excretion of protein, Weeks 1-8","normal rats; Table 4, normal rats, treatment group (762 nmoles/kg/day), 12 rats, mean ± SEM, saline control 18.7 ± 1.8",16.1 ± 1.7 mg
same,"24-hour urinary excretion of protein, Weeks 9-16","normal rats; Table 4, normal rats, treatment group (762 nmoles/kg/day), 12 rats, mean ± SEM, saline control 19.9 ± 2.2",17.8 ± 1.1 mg
same,Effect on urinary excretion of protein in normal rats,"normal rats; normal rats, oral dose of 762 nmoles/kg/day",no effect
same,"24-hour urinary excretion of protein, Weeks 9-16","⅚ nephrectomized rats; Table 2, first experiment, 8 rats, saline control 37.2 ± 2.3, p = 0.024",*28.7 ± 2.5 mg
same,"24-hour urinary excretion of protein, Weeks 1-8","⅚ nephrectomized rats; Table 2, first experiment, 8 rats",16.4 ± 1.6 mg
same,"24-hour urinary excretion of protein, Weeks 9-16","⅚ nephrectomized rats; Table 3, repeat experiment, 12 rats, saline control 51.7 ± 4.7, p = 0.048",*39.6 ± 3.3 mg
same,"24-hour urinary excretion of protein, Weeks 1-8","⅚ nephrectomized rats; Table 3, repeat experiment, 12 rats",19.9 ± 1.5 mg
same,Anti-proteinuric action (progressive development of proteinuria),"⅚ nephrectomized rats; ablation nephropathic rats, oral dose of 762 nmoles/kg/day",effective agent in attenuating the progressive development of proteinuria
